Data on 22 compounds can be found in patent US20230165846A1, “HETEROCYCLIC GLP-1 AGONISTS” (Gasherbrum Bio, Inc., priority 2020, published 2023).

Sequence of GLP-1 Receptor (P43220 24-463): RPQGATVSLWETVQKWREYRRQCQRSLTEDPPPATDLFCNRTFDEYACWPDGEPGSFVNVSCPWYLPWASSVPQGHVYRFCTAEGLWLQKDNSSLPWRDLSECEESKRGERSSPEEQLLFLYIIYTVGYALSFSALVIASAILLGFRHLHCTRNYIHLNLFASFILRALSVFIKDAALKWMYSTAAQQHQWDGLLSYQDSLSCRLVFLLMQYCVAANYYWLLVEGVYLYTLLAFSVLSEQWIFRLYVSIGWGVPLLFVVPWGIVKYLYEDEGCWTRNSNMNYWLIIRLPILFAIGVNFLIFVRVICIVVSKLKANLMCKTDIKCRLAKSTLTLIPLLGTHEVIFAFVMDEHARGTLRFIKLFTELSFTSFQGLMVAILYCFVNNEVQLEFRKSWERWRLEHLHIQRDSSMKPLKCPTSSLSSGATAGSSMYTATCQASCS

This test concerns the target GLP-1 Receptor (Homo sapiens, UniProt P43220). As to the kind of experiment: GLP-1R agonist cAMP stimulation assay, Method 2 (HDB HEK293/GLP1R/CRE-LUC, Cisbio cAMP dynamic 2 kit). Type of test: cell-based. To be noted: HEK293/GLP1R/CRE-LUC cells (HD Biosciences); 30 min at 37° C.; 0.5 mM IBMX, 0.1% BSA; geometric mean where n>=2; read-out: GLP1R cAMP Stimulation DR: EC50 (nM) Method 2 (HDB). As to the method: Method 2: Activation of GLP-1 receptor is known to stimulate cyclic AMP (cAMP) production in cells which indicates primary coupling to the Gas subunit of the G protein heterotrimeric complex.
To optimize functional activity directed toward Gas coupling, a HEK293/CRE-Luc cell line developed by HDB stably expressing the GLP-1 Receptor was used. 200× concentration of compound working solutions were prepared (Agilent Technologies Bravo) with ½log serial dilution in 384-well Echo LDV plate (Labcyte, Cat# LP-0200). […] Seal the plate and incubate at 37° C. with 5% CO2 for 30 min.
After incubation the cAMP assay signal was generated using cAMP dynamic 2 Kit (Cisbio). 5 µL cAMP-d2 working solution was added to each well, followed with 5 µL Anti-cAMP antibody-cryptate working solution added to each well using ThermoFisher Multidrop Combi. Incubate at room temperature for 1 hour protected from light.
%Activity = 100% x (mean RLU of test sample - mean RLU of vehicle control) / (mean RLU of MAX control - mean RLU of vehicle control))
This is done to account for the lognormal distribution of multiple estimates of EC50 values. In practice geometric mean is calculated by first generating log values of EC50, averaging replicates and then calculating the antilog of the average.
A word on the EC50: it is the concentration giving half of the maximal effect. As for `N#Cc1ccc(COc2cccc(C3=CCC(Cc4nc5ccc(C(=O)O)nc5n4C[C@@H]4CCO4)CC3)n2)c(F)c1` (single isomer, unassigned) [Compound 101b], the EC50 was found to be 0.0088 nM.
The figure for `N#Cc1ccc(COc2cccc(C3=CCC(Cc4nc5ccc(C(=O)O)nc5n4C[C@@H]4CCO4)CC3)n2)c(F)c1` (single isomer, unassigned) [Compound 101c] is 0.083 nM.
The figure for `O=C(O)c1ccc2nc(CC3CC=C(c4cccc(OCc5ccc(Cl)cc5F)n4)CC3)n(C[C@@H]3CCO3)c2n1` (single isomer, unassigned) [Compound 102b] is 0.007 nM.
The same measure for `O=C(O)c1ccc2nc(CC3CC=C(c4cccc(OCc5ccc(Cl)cc5F)n4)CC3)n(C[C@@H]3CCO3)c2n1` (single isomer, unassigned) [Compound 102c]: 0.044 nM; for `O=C(O)c1ccc2nc(CC3CC=C(c4ncc(F)c(OCc5ccc(Cl)cc5F)n4)CC3)n(C[C@@H]3CCO3)c2n1` (single isomer, unassigned) [Compound 114b]: 0.012 nM.
For the compound `O=C(O)c1ccc2nc(CC3CC=C(c4ncc(F)c(OCc5ccc(Cl)cc5F)n4)CC3)n(C[C@@H]3CCO3)c2n1` (single isomer, unassigned) [Compound 114c], the EC50 turned out to be 0.13 nM.
The same measure for `O=C(O)c1ccc2nc(CC3CC=C(c4ccc(F)c(OCc5ccc(Cl)cc5F)n4)CC3)n(C[C@@H]3CCO3)c2n1` (stereo partly drawn) [Compound 113a, 2-((4-(6-((4-chloro-2-fluorobenzyl)oxy)-5-fluoropyridin-2-yl)cyclohex-3-en-1-yl)methyl)-3-(((S)-oxetan-2-yl)methyl)-3H-imidazo[4,5-b]pyridine-5-carboxylic acid]: 0.015 nM.
The same measure for `O=C(O)c1ccc2nc(CC3CC=C(c4ncc(F)c(OCc5ccc(Cl)cc5F)n4)CC3)n(C[C@@H]3CCO3)c2n1` (stereo partly drawn) [Compound 114a, 2-((4-(4-((4-chloro-2-fluorobenzyl)oxy)-5-fluoropyrimidin-2-yl)cyclohex-3-en-1-yl)methyl)-3-(((S)-oxetan-2-yl)methyl)-3H-imidazo[4,5-b]pyridine-5-carboxylic acid]: 0.02 nM; for `N#Cc1ccc(COc2nc(C3=CCC(Cc4nc5ccc(C(=O)O)nc5n4C[C@@H]4CCO4)CC3)ccc2F)c(F)c1` (stereo partly drawn) [Compound 115a, 2-((4-(6-((4-cyano-2-fluorobenzyl)oxy)-5-fluoropyridin-2-yl)cyclohex-3-en-1-yl)methyl)-3-(((S)-oxetan-2-yl)methyl)-3H-imidazo[4,5-b]pyridine-5-carboxylic acid]: 0.018 nM.
The figure for `O=C(O)c1cc2c(cn1)nc(CC1CC=C(c3cccc(OCc4ccc(Cl)cc4F)n3)CC1)n2C[C@@H]1CCO1` (stereo partly drawn) [Compound 116a, 2-((4-(6-((4-chloro-2-fluorobenzyl)oxy)pyridin-2-yl)cyclohex-3-en-1-yl)methyl)-1-(((S)-oxetan-2-yl)methyl)-1H-imidazo[4,5-c]pyridine-6-carboxylic acid] is 0.73 nM; for `N#Cc1ccc(COc2cccc(C3=CCC(Cc4nc5cnc(C(=O)O)cc5n4C[C@@H]4CCO4)CC3)n2)c(F)c1` (stereo partly drawn) [Compound 117a, 2-((4-(6-((4-cyano-2-fluorobenzyl)oxy)pyridin-2-yl)cyclohex-3-en-1-yl)methyl)-1-(((S)-oxetan-2-yl)methyl)-1H-imidazo[4,5-c]pyridine-6-carboxylic acid] it is 0.37 nM.
In the case of `O=C(O)c1cnc2nc(CC3CC=C(c4cccc(OCc5ccc(Cl)cc5F)n4)CC3)n(C[C@@H]3CCO3)c2c1` (stereo partly drawn) [Compound 118a, 2-((4-(6-((4-chloro-2-fluorobenzyl)oxy)pyridin-2-yl)cyclohex-3-en-1-yl)methyl)-1-(((S)-oxetan-2-yl)methyl)-1H-imidazo[4,5-b]pyridine-6-carboxylic acid], the EC50 is 0.02 nM.
As to `O=C(O)c1cnc2nc(CC3CC=C(c4nccc(OCc5ccc(Cl)cc5F)n4)CC3)n(C[C@@H]3CCO3)c2c1` (stereo partly drawn) [Compound 119a, 2-((4-(4-((4-chloro-2-fluorobenzyl)oxy)pyrimidin-2-yl)cyclohex-3-en-1-yl)methyl)-1-(((S)-oxetan-2-yl)methyl)-1H-imidazo[4,5-b]pyridine-6-carboxylic acid], the EC50 came to 0.17 nM.
The figure for `O=C(O)c1ccc2nc(CC3CC=C(c4ncc(F)c(OCc5ccc(Cl)cn5)n4)CC3)n(C[C@@H]3CCO3)c2n1` (stereo partly drawn) [Compound 120a, 2-((4-(4-((5-chloropyridin-2-yl)methoxy)-5-fluoropyrimidin-2-yl)cyclohex-3-en-1-yl)methyl)-3-(((S)-oxetan-2-yl)methyl)-3H-imidazo[4,5-b]pyridine-5-carboxylic acid] is 0.12 nM; for `O=C(O)c1ccc2nc(CC3CC=C(c4cccc(OCc5ccc(Cl)cn5)n4)CC3)n(C[C@@H]3CCO3)c2n1` (stereo partly drawn) [Compound 121a, 2-((4-(6-((5-chloropyridin-2-yl)methoxy)pyridin-2-yl)cyclohex-3-en-1-yl)methyl)-3-(((S)-oxetan-2-yl)methyl)-3H-imidazo[4,5-b]pyridine-5-carboxylic acid] it is 0.027 nM; for `N#Cc1ccc(COc2nc(C3=CCC(Cc4nc5ccc(C(=O)O)nc5n4CC4CC4)CC3)ncc2F)c(F)c1` (stereo not shown) [Compound 122, 2-((4-(4-((4-cyano-2-fluorobenzyl)oxy)-5-fluoropyrimidin-2-yl)cyclohex-3-en-1-yl)methyl)-3-(cyclopropylmethyl)-3H-imidazo[4,5-b]pyridine-5-carboxylic acid] it is 0.43 nM.
The figure for `N#Cc1ccc(COc2nc(C3=CCC(Cc4nc5ccc(C(=O)O)nc5n4CC4(C#N)CC4)CC3)ncc2F)c(F)c1` (stereo not shown) [Compound 123, 2-((4-(4-((4-cyano-2-fluorobenzyl)oxy)-5-fluoropyrimidin-2-yl)cyclohex-3-en-1-yl)methyl)-3-((1-cyanocyclopropyl)methyl)-3H-imidazo[4,5-b]pyridine-5-carboxylic acid] is 0.067 nM; for `CC(C)(C#N)Cn1c(CC2CC=C(c3ncc(F)c(OCc4ccc(C#N)cc4F)n3)CC2)nc2ccc(C(=O)O)nc21` (stereo not shown) [Compound 124, 2-((4-(4-((4-cyano-2-fluorobenzyl)oxy)-5-fluoropyrimidin-2-yl)cyclohex-3-en-1-yl)methyl)-3-(2-cyano-2-methylpropyl)-3H-imidazo[4,5-b]pyridine-5-carboxylic acid] it is 0.39 nM.
The figure for `N#CC1(Cn2c(CC3CC=C(c4ncc(F)c(OCc5ccc(Cl)cc5F)n4)CC3)nc3ccc(C(=O)O)nc32)CC1` (stereo not shown) [Compound 125, 2-((4-(4-((4-chloro-2-fluorobenzyl)oxy)-5-fluoropyrimidin-2-yl)cyclohex-3-en-1-yl)methyl)-3-((1-cyanocyclopropyl)methyl)-3H-imidazo[4,5-b]pyridine-5-carboxylic acid] is 0.045 nM; for `CC(C)(C#N)Cn1c(CC2CC=C(c3ncc(F)c(OCc4ccc(Cl)cc4F)n3)CC2)nc2ccc(C(=O)O)nc21` (stereo not shown) [Compound 126, 2-((4-(4-((4-chloro-2-fluorobenzyl)oxy)-5-fluoropyrimidin-2-yl)cyclohex-3-en-1-yl)methyl)-3-(2-cyano-2-methylpropyl)-3H-imidazo[4,5-b]pyridine-5-carboxylic acid] it is 0.37 nM; for `COCCn1c(CC2CC=C(c3ncc(F)c(OCc4ccc(Cl)cc4F)n3)CC2)nc2ccc(C(=O)O)nc21` (stereo not shown) [Compound 127] it is 0.83 nM.
As for `CC#CCn1c(CC2CC=C(c3cccc(OCc4ccc(Cl)cc4F)n3)CC2)nc2ccc(C(=O)O)nc21` (stereo not shown) [Compound 128, 3-(but-2-yn-1-yl)-2-((4-(6-((4-chloro-2-fluorobenzyl)oxy)pyridin-2-yl)cyclohex-3-en-1-yl)methyl)-3H-imidazo[4,5-b]pyridine-5-carboxylic acid], the EC50 came to 59 nM.
